From patent publication US4283409A, “Imidazolone derivatives” (Pfizer Inc., priority 1979, dated 1981)

Columns and labels:
[1] = system: sorbitol accumulation in the sciatic nerve of streptozotocinized (i.e., diabetic) rats; experiment: sorbitol accumulation in the sciatic nerve of streptozotocinized (diabetic) rats; type: in vivo
Procedure: (§1) The activity of the compounds of the present invention, as agents for the control of chronic diabetic complications, is determined by their ability to successfully pass one or more of the following standard biologically and/or pharmacological tests, viz., (1) measuring their ability to reduce or inhibit sorbitol accumulation in the sciatic nerve of acutely streptozotocinized (i.e., diabetic) rats; (2) measuring their ability to reverse already-elevated sorbitol levels in the sciatic nerve and lens of chronic streptozotocin-induced diabetic rats; (3) measuring their ability to prevent or inhibit galactitol formation in the lens of acutely galactosemic rats, and (4) measuring their ability to delay cataract formation and reduce the severity of lens opacities in chronic galactosemic rats.
The final product of Example 1, viz., 3',4'-dihydro-spiro-[imidazolidine-4,1'(2'H)naphthalene]-5-one, was tested for its ability to reduce or inhibit sorbitol accumulation in the sciatic nerve of streptozotocinized (i.e., diabetic rats) by the procedure essentially described in U.S. Pat. No. 3,821,383. In the present study, the amount of sorbitol accumulation in the sciatic nerves was measured 27 hours after the induction of diabetes. The compound was then administered orally at 25 mg./kg. at intervals of 4, 8 and 24 hours after the administration of streptozotocin. The results obtained in this manner are clearly presented in terms of the percent inhibition (%) afforded by the test compound as compared to the case where no compound was administered (i.e., the control or untreated animal where sorbitol levels normally rise from approximately […]. tissue to as high as 400 mM/g. tissue in the 27-hour test period).

[2] = system: galactitol levels in the lens of galactosemic subjects; experiment: galactitol levels in the lens of galactosemic subjects; type: in vivo, rats; settings: summary statement, no dose given
Procedure: as §1

For O=C1NCNC12CCCc1ccccc12 (stereo not shown) [Example 1, 3',4'-dihydro-spiro-[imidazolidine-4,1'(2'H)naphthalene]-5-one], the “percent inhibition of sorbitol accumulation in the sciatic nerve” value ([1]; diabetic rats, oral 25 mg./kg. at 4, 8 and 24 hours after streptozotocin, sorbitol measured 27 hours after induction of diabetes, vs untreated control) was 52%, the “signs of toxic side effects” value ([1]; diabetic rats, oral route, dose level of 25 mg./kg.) was “without showing any substantial signs of toxic side effects” and the “lowering sorbitol levels in the lens and sciatic nerve of diabetic subjects” value ([1]; summary statement, no dose given) was “remarkably effective”. For the same molecule, the “lowering galactitol levels in the lens of galactosemic subjects” value [2] was “remarkably effective”.
